According to patent US20100204487A1, “PROCESS FOR MAKING THIOPHENE CARBOXAMIDE DERIVATIVES” (priority 2007, published 2010):
Where a name gives a salt, the structure may show the parent alone.

Assays:
[1] = in vivo
[2] = pharmacokinetics / bioavailability of free acid and salts of the compound of Formula I; conditions: free acid

## Cc1sc(C)c(C(=O)NC2(c3ccc(C(=O)O)cc3)CC2)c1Cc1ccc(C(F)(F)F)cc1 [Et2NH salt, 4-{1-[({2,5-dimethyl-4-[4-(trifluoromethyl)benzyl]-3-thienyl}carbonyl)amino]cyclopropyl}benzoic acid diethylamine salt]
[1]
  exposure: doubled the exposure

## Cc1sc(C)c(C(=O)NC2(c3ccc(C(=O)O)cc3)CC2)c1Cc1ccc(C(F)(F)F)cc1 [free acid of Formula I]
[2]
  bioavailability: poorly bioavailable
